The values below come from patent US7598280B2, “Heterocyclic compounds, compositions comprising them and methods of their use” (Lexicon Pharmaceuticals, Inc., priority 2007, dated 2009).

The test system of one assay is circulating lymphocytes. The assay is described as follows: Measuring effects on lymphocytes in mice. Type of assay: in vivo. How it is done: Unless otherwise indicated, the term “circulating lymphocyte reduction factor” or “CLRF” means the decrease in the number of circulating lymphocytes in mice caused by oral administration of a single dose of a compound at 100 mg/kg, as determined by the method described in the Examples, below.
Compounds were administered by oral gavage or in drinking water. For oral dosing experiments, compounds were resuspended from crystals at 10 mg/ml in vehicle (e.g., water). Mice (F1 hybrids of 129/B6 strain) were gavaged with a single 100 mg/kg dose of compound (equivalent to 100 mpk of the free base for each compound) or a vehicle-only control, and returned to their cages. Mice were anesthetized using isofluorane eighteen hours after dosing and tissues were collected for analysis as described below. For drinking water studies, compounds were dissolved at 50 mg/L in acidified water (pH=2.8) containing 10 g/L glucose. The mice were allowed free access to compound-containing water (or glucose solution as a control) for 72 hours. At the end of 72 hours, tissues were collected for analysis.
CBC measurements were obtained as follows. Mice were anesthetized with isofluorane and blood was collected from the retroorbital plexus into EDTA blood collection tubes (Capiject-MQK, Terumo Medical Corp., Elkton, Md.). […]

Another assay relates to immunological effects. The following applies: studies in humans; cited from earlier work.
The subject of assay [1] is lymphocytes / mature T cells. As to conditions: administration to rats and mice; cited from earlier work.
In the next assay the target is T1, S1P lyase (Mus musculus, UniProt Q8R0X7).
T1 construct: host or cells: mice (in vivo, endogenous enzyme)
T1 sequence (Q8R0X7 1-568): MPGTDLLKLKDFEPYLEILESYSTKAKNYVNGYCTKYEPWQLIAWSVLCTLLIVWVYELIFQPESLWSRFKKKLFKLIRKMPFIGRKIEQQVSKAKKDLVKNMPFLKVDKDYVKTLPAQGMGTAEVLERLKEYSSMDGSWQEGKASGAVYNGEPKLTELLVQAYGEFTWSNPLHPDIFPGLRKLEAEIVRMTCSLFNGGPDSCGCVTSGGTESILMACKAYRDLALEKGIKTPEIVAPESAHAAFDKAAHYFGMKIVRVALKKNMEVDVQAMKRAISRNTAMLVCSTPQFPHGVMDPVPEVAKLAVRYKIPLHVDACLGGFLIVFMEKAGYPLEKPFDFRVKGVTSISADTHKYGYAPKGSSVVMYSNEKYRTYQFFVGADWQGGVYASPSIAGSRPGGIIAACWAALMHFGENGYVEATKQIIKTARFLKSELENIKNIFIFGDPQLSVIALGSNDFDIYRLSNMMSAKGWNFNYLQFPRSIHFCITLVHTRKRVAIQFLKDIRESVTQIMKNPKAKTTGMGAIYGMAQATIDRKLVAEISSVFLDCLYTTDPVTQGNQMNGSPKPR
As to conditions: when administered to mice; cited from earlier work.

For `CC(=O)c1nc(C)c([C@@H](O)[C@H](O)[C@H](O)CO)s1` [1-(4-methyl-5-((1S,2R,3R)-1,2,3,4-tetrahydroxybutyl)thiazol-2-yl)ethanone], the “effect on circulating lymphocytes” value in the assay with circulating lymphocytes is “little or no effect”.
As for `CC(=O)c1nc(C(O)C(O)C(O)CO)c[nH]1` (stereo not drawn) [THI, 2-acetyl-4-tetrahydroxybutylimidazole], the immunological effects result in the assay with immunological effects is on record as “no immunological effects”. Besides, in assay [1], the “accumulation of mature T cells in the thymus” value is reported as “causes the accumulation of mature T cells in the thymus” and the lymphopenia entry is reported as “induces lymphopenia”. In the assay on circulating lymphocytes, the “effect on circulating lymphocytes” value is “capable of reducing circulating lymphocytes”. Moreover, the S1P lyase activity result at S1P lyase is listed as “inhibits S1P lyase activity”.
